Values of other authors as cited in paper PMC12238501 (Scientific Reports, 2025).

- Solubility in water: low solubility in water
Structure (SMILES): Oc1ccc(C=Cc2cc(O)cc(O)c2)cc1 [Resveratrol, 3,4’,5-trihydroxystilbene]
